Read-outs that look alike come from different tables or passages of the source.
How the values were obtained:
[1] = system: J774A.1 cells; experiment: Anti-pyroptosis activity assay in J774A.1 cells (CCK-8 readout, nigericin stimulation); type: cell-based; conditions: Mus musculus, J774.A1, nigericin 10 µM
[2] = In-vitro stability in liver microsomes; conditions: human liver microsomes 0.5 mg/mL, NADPH, 37 °C, 1 h
[3] = system: IL-1β expression in THP-1 cells; experiment: In-vitro THP-1 cell (IL-1β) expression assay (LPS + nigericin, ELISA); type: cell-based; conditions: Homo sapiens; for inhibition at 0.001 µM: THP-1, read-out: 1 nM (% inhibition); for inhibition at 0.01 µM: THP-1, read-out: 10 nM (% inhibition); for inhibition at 0.1 µM: THP-1, read-out: 100 nM (% inhibition)
Experimental: THP-1 cells in good growth status were collected into a centrifuge tube, and the cell density was adjusted to 2 × 10^6 cells/mL. The cells were then seeded into a 96-well plate (50 µL/well), and meanwhile, LPS (manufacturer: Sigma; 50 µL/well) was added at a final concentration of 100 ng/mL. The plate was then incubated at 37 °C with 5% CO2 for 3 h. […] The plate was incubated at 37 °C with 5% CO2 for 1 h. Nigericin (manufacturer: Millipore; 50 µL/well) was added at a final concentration of 10 µM, and the plate was incubated at 37 °C with 5% CO2 for 1 h and then centrifuged at 1500 rpm for 3 min. The supernatant was collected and stored at -20 °C for subsequent detection of human IL-1β.
Human IL-1β detection (manufacturer: R&D): Human IL-1β Capture Antibody (coating antibody) was added to a high-binding 96-well plate at a final concentration of 4 µg/mL (100 µL/well), and the plate was incubated at 4 °C overnight. The supernatant was discarded, and the plate was washed with PBST (300 µL/well, 3 times in total). A 1% BSA-PBS blocking buffer was added (200 µL/well), and the plate was blocked at 25 °C for 2 h. The supernatant was discarded, and the plate was washed with PBST (300 µL/well, 3 times in total). A standard curve sample and the diluted samples to be tested were then added (100 µL/well), and the plate was incubated at 25 °C for 2 h. The supernatant was discarded, and the plate was washed with PBST (300 µL/well, 3 times total). Human IL-1β Detection Antibody (detection secondary antibody) was added at a final concentration of 200 ng/mL (100 µL/well), and the plate was incubated at 25 °C for 2 h. The supernatant was discarded, and the plate was washed with PBST (300 µL/well, 3 times in total). Streptavidin-HRP (detection tertiary antibody) was then added (100 µL/well), and the plate was incubated at 25 °C for 20 min. The supernatant was discarded, and the plate was washed with PBST (300 µL/well, 3 times in total). TMB was added for color development (100 µL/well), and the plate was incubated at 25 °C for 5 min. Finally, 1 M H2SO4 was added to terminate the reaction (50 µL/well). Absorbance values were measured at 450/570 nm using a PerkinElmer Envision microplate reader. Data were analyzed using a four-parameter model to calculate the IL-1β expression amount and inhibition rate. […]

[4] = microsomes, 1 h

**Q.** Which results are given for `CN1CCC[C@@H](Nc2nnc(-c3ccc(C(F)(F)F)cc3O)n3cccc23)C1` [Example 1]?
**A.** EC50 [1]: < 100 nM; Human Remaining amount at 60 min (%) [2]: 95.57%; inhibition at 0.001 µM [3]: ≥ 50%; inhibition at 0.01 µM [3]: ≥ 50%

**Q.** For `CN1CCC[C@@H](Nc2nnc(-c3ccc(C(F)(F)F)cc3O)c3cc4sccc4n23)C1` [Example 2], which “Human Remaining amount at 60 min (%)” value [4] is on record?
**A.** 80.23%

**Q.** What about the EC50 [1] of the same molecule?
**A.** < 100 nM

**Q.** And the inhibition at 0.001 µM [3]?
**A.** 10 to 50%

**Q.** What about the inhibition at 0.01 µM [3] of the same molecule?
**A.** 10 to 50%

**Q.** What about the inhibition at 0.1 µM [3] of the same molecule?
**A.** ≥ 50%

**Q.** Which EC50 [1] does the source give for `CN1CCC[C@@H](Nc2nnc(-c3ccc(C(F)(F)F)cc3O)n3c2cc2sccc23)C1` [Example 3] here?
**A.** 100 to 1000 nM

**Q.** What about the inhibition at 0.001 µM [3] of the same molecule?
**A.** 10 to 50%

**Q.** What about the inhibition at 0.01 µM [3] of the same molecule?
**A.** 10 to 50%

**Q.** What about the inhibition at 0.1 µM [3] of the same molecule?
**A.** ≥ 50%

**Q.** Which EC50 [1] does the source give for `CN1CCC[C@@H](Nc2nnc(-c3ccc(C(F)(F)F)cc3O)c3c4c(cn23)CCC4)C1` [Example 4] here?
**A.** 100 to 1000 nM

**Q.** What about the inhibition at 0.001 µM [3] of the same molecule?
**A.** 10 to 50%

**Q.** What about the inhibition at 0.01 µM [3] of the same molecule?
**A.** 10 to 50%

**Q.** And the inhibition at 0.1 µM [3]?
**A.** ≥ 50%

**Q.** Which EC50 [1] does the source give for `CN1CCC[C@@H](Nc2nnc(-c3ccc(C(F)(F)F)cc3O)n3cc4c(c23)CCC4)C1` [Example 5] here?
**A.** < 100 nM

**Q.** What about the “Human Remaining amount at 60 min (%)” value [2] of the same molecule?
**A.** 72.41%

**Q.** What about the inhibition at 0.001 µM [3] of the same molecule?
**A.** 10 to 50%

**Q.** What about the inhibition at 0.01 µM [3] of the same molecule?
**A.** ≥ 50%

**Q.** What about the inhibition at 0.1 µM [3] of the same molecule?
**A.** ≥ 50%

**Q.** Which EC50 [1] does the source give for `CN1CCC[C@@H](Nc2nnc(-c3ccc(C(F)(F)F)cc3O)c3cc4c(n23)CCC4)C1` [Example 6] here?
**A.** 100 to 1000 nM

**Q.** And the inhibition at 0.001 µM [3]?
**A.** 10 to 50%

**Q.** And the inhibition at 0.01 µM [3]?
**A.** 10 to 50%

**Q.** What about the inhibition at 0.1 µM [3] of the same molecule?
**A.** ≥ 50%

**Q.** Which “Human Remaining amount at 60 min (%)” value [2] does the source give for `CN1CCC[C@@H](Nc2nnc(-c3ccc(C(F)(F)F)cc3O)n3c4c(cc23)CCC4)C1` [Example 7] here?
**A.** 90.01%

**Q.** Which “Human Remaining amount at 60 min (%)” value [2] does the source give for `OCCN1CCC[C@@H](Nc2nnc(-c3ccc(C(F)(F)F)cc3O)n3cc4c(c23)CCC4)C1` [Example 8] here?
**A.** 79.13%

**Q.** What does the source list for `C#Cc1ccc(-c2nnc(N[C@@H]3CCCN(C)C3)c3cccn23)c(O)c1` [Example 9]?
**A.** EC50 [1]: < 100 nM; Human Remaining amount at 60 min (%) [2]: 98.65%; inhibition at 0.001 µM [3]: ≥ 50%; inhibition at 0.01 µM [3]: ≥ 50%; inhibition at 0.1 µM [3]: ≥ 50%

**Q.** With `CC#Cc1ccc(-c2nnc(N[C@@H]3CCCN(C)C3)c3cccn23)c(O)c1` [Example 10] as the molecule, how does the “Human Remaining amount at 60 min (%)” value [2] read?
**A.** 99.00%

**Q.** With `C#Cc1ccc(-c2nnc(N[C@@H]3CCCN(C)C3)c3c4c(cn23)CCC4)c(O)c1` [Example 11] as the molecule, how does the “Human Remaining amount at 60 min (%)” value [2] read?
**A.** 75.56%

**Q.** What does the source list for `C=Cc1ccc(-c2nnc(N[C@@H]3CCCN(C)C3)c3cccn23)c(O)c1` [Example 12]?
**A.** Human Remaining amount at 60 min (%) [2]: 100.53%; inhibition at 0.001 µM [3]: ≥ 50%; inhibition at 0.01 µM [3]: ≥ 50%; inhibition at 0.1 µM [3]: ≥ 50%

**Q.** For `CN1CCC[C@@H](Nc2nnc(-c3ccc(Cl)cc3O)n3cccc23)C1` [Example 13], which EC50 [1] is on record?
**A.** < 100 nM

**Q.** For `OCCN1CCC[C@@H](Nc2nnc(-c3ccc(C(F)(F)F)cc3O)c3c4c(cn23)CCC4)C1` [Example 14], which “Human Remaining amount at 60 min (%)” value [2] is on record?
**A.** 93.13%

**Q.** With `C[C@]1(O)C[C@@H](Nc2nnc(-c3ccc(C(F)(F)F)cc3O)n3cccc23)C1` [Example 15] as the molecule, how does the EC50 [1] read?
**A.** 100 to 1000 nM

**Q.** With `Oc1cc(C(F)(F)F)ccc1-c1nnc(N[C@@H]2COC[C@H]2O)c2c3c(cn12)CCC3` [Example 16] as the molecule, how does the EC50 [1] read?
**A.** 100 to 1000 nM

**Q.** Which EC50 [1] does the source give for `Oc1cc(C(F)(F)F)ccc1-c1nnc(N[C@@H]2COC[C@@H]2O)c2c3c(cn12)CCC3` [Example 17] here?
**A.** 100 to 1000 nM

**Q.** For `Oc1cc(Cl)ccc1-c1nnc(N[C@@H]2COC[C@H]2O)c2c3c(cn12)CCC3` [Example 18], which EC50 [1] is on record?
**A.** 100 to 1000 nM

**Q.** Which EC50 [1] does the source give for `Oc1cc(C(F)(F)F)ccc1-c1nnc(N[C@@H]2CCCC[C@H]2O)c2c3c(cn12)CCC3` [Example 21] here?
**A.** < 100 nM

**Q.** With `CS(=O)(=O)N1CCC[C@@H](Nc2nnc(-c3ccc(C(F)(F)F)cc3O)n3cccc23)C1` [Example 22] as the molecule, how does the EC50 [1] read?
**A.** 100 to 1000 nM

**Q.** For `NS(=O)(=O)N1CCC[C@@H](Nc2nnc(-c3ccc(C(F)(F)F)cc3O)n3cccc23)C1` [Example 23], which EC50 [1] is on record?
**A.** < 100 nM

**Q.** What about the “Human Remaining amount at 60 min (%)” value [2] of the same molecule?
**A.** 93.93%

**Q.** With `O=S(=O)(C1CC1)N1CCC[C@@H](Nc2nnc(-c3ccc(C(F)(F)F)cc3O)n3cccc23)C1` [Example 24] as the molecule, how does the EC50 [1] read?
**A.** 100 to 1000 nM

**Q.** Which results are given for `CS(=N)(=O)N1CCC[C@@H](Nc2nnc(-c3ccc(C(F)(F)F)cc3O)n3cccc23)C1` (stereo partly shown) [Example 25]?
**A.** EC50 [1]: 100 to 1000 nM; Human Remaining amount at 60 min (%) [2]: 98.06%

Source: patent publication EP4644392A1, “PYRIDAZINE FUSED ARYL RING COMPOUND AND USE THEREOF” (Chia Tai Tianqing Pharmaceutical Group Co., Ltd., priority 2022, dated 2024)
